Conditions: 283.15 K, Liquid, Vibrating tube method

CCCCC(=O)OCC(COC(=O)CCCC)(COC(=O)CCCC)COC(=O)CCCC [pentaerythritol tetrapentanoate]
Conditions | mass density [kg/m3]
2596 kPa | 1028.7
2607.6 kPa | 1028.6
2619.2 kPa | 1028.8
2631.2 kPa | 1028.6
2645.8 kPa | 1028.6
2657.4 kPa | 1028.6
2670 kPa | 1028.7
2684.8 kPa | 1028.6
2697.1 kPa | 1028.5
2708.7 kPa | 1028.6
2721.4 kPa | 1028.6
2736.6 kPa | 1028.8
2749.1 kPa | 1028.6
2762 kPa | 1028.6
2777.4 kPa | 1028.7
2790.4 kPa | 1028.7
2803.7 kPa | 1028.6
2819.5 kPa | 1028.6
2833.1 kPa | 1028.7
2846.4 kPa | 1028.7
2860.3 kPa | 1028.7
2874 kPa | 1028.8
2891 kPa | 1028.7
2904.7 kPa | 1028.6
2918.7 kPa | 1028.8
2935.2 kPa | 1028.8
2949.4 kPa | 1028.8
2963.8 kPa | 1028.8
2978.5 kPa | 1028.7
2995.7 kPa | 1028.9
3010.3 kPa | 1028.8
3025.5 kPa | 1028.8
3042.9 kPa | 1028.9
3057.8 kPa | 1029
3073.4 kPa | 1028.9
3091.7 kPa | 1028.8
3107 kPa | 1028.9
3122.3 kPa | 1028.9
3138 kPa | 1029
3156.6 kPa | 1029
3172.7 kPa | 1028.9
3191.8 kPa | 1028.9
3207.9 kPa | 1029
3224.7 kPa | 1028.9
3241.2 kPa | 1029
3261.6 kPa | 1029
3276.9 kPa | 1028.9
3297 kPa | 1028.9
3314 kPa | 1029
3334.8 kPa | 1029.1
3352.3 kPa | 1029
3369.8 kPa | 1029
3387.8 kPa | 1029
3405.8 kPa | 1029.1
3427.2 kPa | 1029.1
3444.8 kPa | 1029.1
3463.4 kPa | 1029.2
3485.6 kPa | 1029
3505 kPa | 1029.1
3523.9 kPa | 1029.1
3543.1 kPa | 1029.2
3562.2 kPa | 1029.1
3585.6 kPa | 1029.1
3605.1 kPa | 1029.2
3625.3 kPa | 1029.2
3645 kPa | 1029.4
3665.5 kPa | 1029.2
3689.4 kPa | 1029.2
3709.5 kPa | 1029.3
3729.7 kPa | 1029.2
3754.5 kPa | 1029.2
3775.8 kPa | 1029.2
3797 kPa | 1029.3
3821.9 kPa | 1029.4
3843.6 kPa | 1029.4
3865.6 kPa | 1029.3
3887.1 kPa | 1029.4
3913.4 kPa | 1029.2
3935.4 kPa | 1029.2
3957.4 kPa | 1029.4
3984.4 kPa | 1029.5
4007.1 kPa | 1029.3
4030 kPa | 1029.5
4053.3 kPa | 1029.5
4081.1 kPa | 1029.5
4104.4 kPa | 1029.6
4128.5 kPa | 1029.5
4157.3 kPa | 1029.6
4181.3 kPa | 1029.5
4205.4 kPa | 1029.5
4234.9 kPa | 1029.5
4260 kPa | 1029.6
4284.7 kPa | 1029.5
4314.9 kPa | 1029.7
4340 kPa | 1029.7
4366.5 kPa | 1029.7
4393.7 kPa | 1029.7
4426 kPa | 1029.7
4453.1 kPa | 1029.7
4480.4 kPa | 1029.8
4507.9 kPa | 1029.8
4542.4 kPa | 1029.9
4572 kPa | 1029.7
4602.1 kPa | 1029.7
4632.8 kPa | 1029.7
4669.8 kPa | 1029.8
4701.7 kPa | 1030
4733 kPa | 1029.9
4763.3 kPa | 1029.9
4792.9 kPa | 1029.8
4797.4 kPa | 1029.9
4798.1 kPa | 1029.9
4800.3 kPa | 1029.9
4801 kPa | 1029.8
4803.1 kPa | 1030
4805.2 kPa | 1029.9
4805.4 kPa | 1030
4807.6 kPa | 1029.9
4808.8 kPa | 1029.9
4810.7 kPa | 1029.9
4811.8 kPa | 1029.9
4812.5 kPa | 1029.9
4813.1 kPa | 1029.9
4813.3 kPa | 1030
4813.7 kPa | 1029.9
4814 kPa | 1030
4814.2 kPa | 1029.9
4814.4 kPa | 1029.9
4819 kPa | 1030
4836.2 kPa | 1029.9
4855.7 kPa | 1029.9
4877.5 kPa | 1029.9
4899 kPa | 1030
4924.1 kPa | 1030
4945.9 kPa | 1029.9
4969.3 kPa | 1030
4990.9 kPa | 1030
5013.2 kPa | 1030
5040.4 kPa | 1030
5062.7 kPa | 1030
5085.9 kPa | 1030
5113.1 kPa | 1030.1
5136.1 kPa | 1030.1
5159.8 kPa | 1030
5188.5 kPa | 1030.1
5213.2 kPa | 1030.2
5238.3 kPa | 1030.2
5263.4 kPa | 1030
5289.6 kPa | 1030.3
5314.9 kPa | 1030.1
5344.8 kPa | 1030.1
5370.4 kPa | 1030.2
5395.8 kPa | 1030.2
5426.8 kPa | 1030.1
5453.3 kPa | 1030.3
5479.6 kPa | 1030.3
5512.1 kPa | 1030.3
5539.8 kPa | 1030.4
5567.4 kPa | 1030.3
5595.3 kPa | 1030.4

From the NIST ThermoML archive (doi:10.1021/je060271a)
